Measurements from article PMC8228141, “Antiprotozoal Nor-Triterpene Alkaloids from Buxus sempervirens L” (Antibiotics, 2021).
Several values for one entry are separate records, joined by “and”; a condition that tells them apart may be missing. Identical values can stand only once. Like-named read-outs stand apart in the source and are kept apart here.

What was measured:
[1] = system: Trypanosoma brucei rhodesiense (Tbr) (bloodstream trypomastigotes, STIB 900 strain); test: In vitro antitrypanosomal activity; type: cell-based; conditions: for SI Tbr (selectivity index): cytotoxicity L6 vs Tbr
Method: (§1) After isolation, all alkaloids were tested in vitro for antiplasmodial and antitrypanosomal activity against Plasmodium falciparum (Pf) and Trypanosoma brucei rhodesiense (Tbr). Furthermore, to assess their selectivity against the parasites, cytotoxicity against L6 rat skeletal myoblasts, as mammalian control cells, was tested (Table 4).
In vitro assays for the bioactivity of the isolated Buxus-alkaloids against Tbr (bloodstream trypomastigotes, STIB 900 strain), Trypanosoma cruzi (Tc) (amastigotes, Tulahuen C4 strain), Leishmania donovani (Ldo) (amastigotes, MHOM-ET-67/L82 strain) and Pf (intraerythrocytic forms, NF54 strain), and cytotoxicity tests against mammalian cells (L6-cell line from rat-skeletal myoblasts), were performed at the Swiss Tropical and Public Health Institute (Swiss TPH, Basel, Switzerland) according to established standard protocols. […] Such a pattern of activity was also observed in other studies.

[2] = system: Plasmodium falciparum (Pf) (intraerythrocytic forms, NF54 strain); test: In vitro antiplasmodial activity; type: cell-based; conditions: for SI Pf (selectivity index): cytotoxicity L6 vs Pf
Method: as §1
(§2) In vitro assays for the bioactivity of the isolated Buxus-alkaloids against Tbr (bloodstream trypomastigotes, STIB 900 strain), Trypanosoma cruzi (Tc) (amastigotes, Tulahuen C4 strain), Leishmania donovani (Ldo) (amastigotes, MHOM-ET-67/L82 strain) and Pf (intraerythrocytic forms, NF54 strain), and cytotoxicity tests against mammalian cells (L6-cell line from rat-skeletal myoblasts), were performed at the Swiss Tropical and Public Health Institute (Swiss TPH, Basel, Switzerland) according to established standard protocols.

[3] = Cytotoxicity against mammalian control cells; type: cell-based, rat; conditions: rat
Method: as §1, §2

[4] = system: L6 rat skeletal myoblasts; test: Cytotoxicity against mammalian control cells; type: cell-based; conditions: L6 cell line; for Cytotox. IC50: mean of n = 2 (fluctuation range) or * n = 3 (SD); for IC50: read-out: Cytotox. IC50 (in parentheses) (converted)
Method: as §1, §2

[5] = Trypanosoma brucei, STIB 900 strain, mean of n = 2 (fluctuation range) or * n = 3 (SD), read-out: Tbr IC50
[6] = Trypanosoma brucei, STIB 900 strain, read-out: Tbr IC50 (in parentheses) (converted)
[7] = Plasmodium falciparum, NF54, NF54 strain, mean of n = 2 (fluctuation range) or * n = 3 (SD), read-out: Pf IC50
[8] = Plasmodium falciparum, NF54, NF54 strain, read-out: Pf IC50 (in parentheses) (converted)
[9] = STIB 900 strain, mean of n = 2 (fluctuation range) or * n = 3 (SD)
[10] = STIB 900 strain, read-out: Tbr IC50 (in parentheses) (converted)
[11] = NF54 strain, mean of n = 2 (fluctuation range) or * n = 3 (SD)
[12] = NF54 strain, read-out: Pf IC50 (in parentheses) (converted)
[13] = L6 rat skeletal myoblast cells, L6 cell line, mean of n = 2 (fluctuation range) or * n = 3 (SD), read-out: Cytotox. IC50
[14] = L6 rat skeletal myoblast cells, L6 cell line, read-out: Cytotox. IC50 (in parentheses) (converted)

Compound	Tbr IC50 [1, 9]	IC50 [1, 10]	Pf IC50 [2, 11]	IC50 [2, 12]	Cytotox. IC50 [4]	IC50 [4]	further results
C=C1C2CC[C@@H]3[C@]4(CC[C@]5(C)[C@@H](C(C)=O)[C@H](O)C[C@@]35C)C[C@]24CC[C@@H]1NC (stereo partly drawn) [Compound 17, Cyclomicrobuxinine]	–	–	–	–	–	–	IC50 [1, 5]: 48 ± 0.2 µg/mL; IC50 [1, 6]: 129 µM; SI Tbr (selectivity index) [1]: 0.6; IC50 [2, 7]: 4.1 ± 0.8 µg/mL; IC50 [2, 8]: 10.9 µM; SI Pf (selectivity index) [2]: 7; IC50 [3]: 30.5 µg/mL and 82 µM
COc1cc([C@@H]2c3cc4c(cc3[C@H](O)[C@H]3COC(=O)[C@H]23)OCO4)cc(OC)c1OC [Podophyllotoxin, reference compound]	–	–	–	–	–	–	IC50 ([3]; L6 cell line, mean of n = 2 (fluctuation range) or * n = 3 (SD), read-out: Cytotox. IC50): 0.006 ± 0.001 µg/mL
CN[C@@H](C)[C@H]1CC[C@@]2(C)[C@@H]3CC[C@H]4C(C)(C)[C@@H](NC)[C@H](OC(=O)c5ccccc5)C[C@@]45C[C@@]35CC[C@]12C [Compound 8, O-benzoyl-cycloprotobuxoline-D]	–	–	–	–	–	–	IC50 [1, 5]: 0.55 ± 0.18 µg/mL; IC50 [1, 6]: 1.1 µM; SI Tbr (selectivity index) [1]: 12; IC50 [2, 7]: 0.09 ± 0.03 µg/mL; IC50 [2, 8]: 0.18 µM; SI Pf (selectivity index) [2]: 74; IC50 [3]: 6.65 µg/mL and 13.1 µM
C[C@@H]([C@H]1[C@H](O)C[C@@]2(C)[C@@H]3CC[C@@H]4[C@@]5(CCC(=O)[C@@]4(C)CO)C[C@@]35CC[C@]12C)N(C)C [Compound 11, 29-hydroxy-cyclomikuranine-L]	–	–	–	–	–	–	IC50 [1, 5]: 2.9 ± 1 µg/mL; IC50 [1, 6]: 7 µM; SI Tbr (selectivity index) [1]: 15; IC50 [2, 7]: 0.9 ± 0.13 µg/mL; IC50 [2, 8]: 2.2 µM; SI Pf (selectivity index) [2]: 49; IC50 [3]: 44 µg/mL and 105 µM
CC(C1C(O)CC2(C)C3C=CC4C(C)(CO)C(N(C)C)CCC45CC35CCC12C)N(C)C (stereo not drawn) [Compound 5, Cyclomicrophylline-A]	1.04 ± 0.27 µg/mL	2.34 µM	0.78 ± 0.08 µg/mL	1.76 µM	44 ± 2.3 µg/mL	99 µM	–
C=C1[C@@H](N(C)C)CC[C@]23C[C@]24CC[C@]2(C)[C@@H](C(C)=O)[C@H](O)C[C@@]2(C)[C@@H]4CC[C@@H]13 [Compound 18, Cyclomicrobuxine]	16.9 ± 2.3 µg/mL	44 µM	2.6 ± 0.005 µg/mL	6.8 µM	26.8 ± 8.8 µg/mL	69.6 µM	–
CN[C@H]1CC=C2CC3=CC[C@@]4(C)[C@@](C)(CC[C@]4(O)[C@H](C)O)[C@@H]3CC[C@H]2C1(C)C [Compound 25, 17,20-dihydroxybuxadine-M]	–	–	–	–	–	–	IC50 [1, 5]: 6.7 ± 0.49 µg/mL; IC50 [1, 6]: 17.3 µM; SI Tbr (selectivity index) [1]: 7; IC50 [2, 7]: 3.6 ± 0.05 µg/mL; IC50 [2, 8]: 9.3 µM; SI Pf (selectivity index) [2]: 12; IC50 [3, 13]: 44.5 ± 5.5 µg/mL; IC50 [3, 14]: 115 µM
CC(C1C(OC(=O)c2ccccc2)CC2(C)C3C=CC4C(C)(CO)C(N(C)C)CCC45CC35CCC12C)N(C)C (stereo not drawn) [Compound 6, Cyclomicrophyllidine-A]	0.69 ± 0.06 µg/mL	1.3 µM	0.4 ± 0.02 µg/mL	0.7 µM	9.3 ± 3 µg/mL	17 µM	–
CC(=O)N[C@@H](C)[C@H]1CC[C@@]2(C)[C@@H]3CC[C@@H]4C(=CC3=CC[C@]12C)CC[C@H](N(C)C)C4(C)C [Compound 21, N20-acetylbuxamine-E]	53 ± 1 µg/mL	124 µM	3.1 ± 0.24 µg/mL	7.3 µM	54.8 ± 1.1 µg/mL	129 µM	–
C[C@@H]([C@H]1CC[C@H]2[C@@H]3CC=C4C[C@@H](O)CC[C@]4(C)[C@H]3CC[C@]12C)N(C)C [Compound 19, Irehine]	2.2 ± 0.07 µg/mL	6.4 µM	1.3 ± 0.35 µg/mL	3.8 µM	13.4 ± 0.5 µg/mL	38.8 µM	–
CC(=O)OC[C@]1(C)[C@@H](NC(=O)c2ccccc2)CC[C@]23C[C@]24C(=O)C[C@]2(C)[C@@H]([C@H](C)N(C)C)CC[C@@]2(C)[C@@H]4CC[C@@H]13 [Compound 9, N-benzoyl-O-acetyl-cycloxo-buxoline-F]	1.35 ± 0.45 µg/mL	2.4 µM	2.15 ± 0.29 µg/mL	3.8 µM	41 ± 0.7 µg/mL	73 µM	–
CC(=O)O[C@@H]1C[C@@]2(C)[C@@H]3CC[C@@H]4C(=CC[C@H](N(C)C)C4(C)C)CC3=CC[C@]2(C)[C@H]1[C@H](C)NC(=O)c1ccccc1 [Compound 23, N-benzoyl-O-acetylbuxadine-E]	–	–	–	–	–	–	IC50 [1, 5]: 3.1 ± 0.6 µg/mL; IC50 [1, 6]: 5.7 µM; SI Tbr (selectivity index) [1]: 9; IC50 [2, 7]: 4.2 ± 0.4 µg/mL; IC50 [2, 8]: 7.7 µM; SI Pf (selectivity index) [2]: 7; IC50 [3, 13]: 27.5 ± 16 µg/mL; IC50 [3, 14]: 50.4 µM
Nc1nc(N)nc(Nc2ccc([As]3SCC(CO)S3)cc2)n1 (stereo not drawn) [Melarsoprol, reference compound]	–	–	–	–	–	–	IC50 ([1]; Trypanosoma brucei, read-out: Tbr IC50): 0.005 ± 0.001 µg/mL; IC50 ([1]; Trypanosoma brucei, read-out: Tbr IC50 (in parentheses)): 0.013 µM
C[C@@H]([C@H]1[C@H](O)C[C@@]2(C)[C@@H]3CC[C@H]4C(C)(C)C(=O)C=C[C@@]45C[C@@]35CC[C@]12C)N(C)C [Compound 12, Nb-dimethylcycloxobuxoviricine]	2.5 ± 0.1 µg/mL	6.3 µM	1.4 ± 0.44 µg/mL	3.5 µM	19 ± 1.2 µg/mL	47.6 µM	–
CCN(CC)CCCC(C)Nc1ccnc2cc(Cl)ccc12 (stereo not drawn) [Chloroquine, reference compound]	–	–	–	–	–	–	IC50 ([2]; Plasmodium falciparum, NF54, read-out: Pf IC50): 0.006 ± 0.001 µg/mL; IC50 ([2]; Plasmodium falciparum, NF54, read-out: Pf IC50 (in parentheses)): 0.019 µM
CC(=O)O[C@@H]1C[C@@]2(C)[C@@H]3CC[C@@H]4C(=CC3=CC[C@]2(C)[C@H]1[C@H](C)NC(=O)c1ccccc1)CC[C@H](N(C)C)C4(C)C [Compound 22, N-benzoyl-O-acetylbuxodienine-E]	3.4 ± 1 µg/mL	–	–	–	8.5 ± 0.1 µg/mL	15.6 µM	–
CC(=O)[C@H]1[C@H](O)C[C@@]2(C)[C@@H]3CC[C@@H]4C(=CC3=CC[C@]12C)CC[C@H](N(C)C)C4(C)C [Compound 20, 16-α-hydroxybuxaminone]	5.26 ± 0.3 µg/mL	13.2 µM	1.6 ± 0.57 µg/mL	4 µM	45 ± 1 µg/mL	113 µM	–
